Data from the METLIN SMRT retention time set (Domingo-Almenara et al. 2019).

Experiment: gradient 5% acetonitrile 3 min, to 50% in 2 min, to 85% in 15 min, held 3 min, 100 µL/min
Details: column: Zorbax Extend-C18 2.1 x 50 mm; eluents: water / acetonitrile, 0.1% formic acid
In short: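 Values are retention times taken from adduct peaks that software picked and an analyst inspected. The pure standards were run as mixtures of ~100 molecules on HPLC linked to a quadrupole time-of-flight mass spectrometer, in positive and negative ionization mode. A Zorbax Extend-C18 column (2.1 × 50 mm, 1.8 μm) was used at 100 μL/min with water and acetonitrile, each including 0.1% formic acid.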

RP-LC retention time	Structure (SMILES)
1110 s	Cc1ccc(S(=O)(=O)c2cnc(N3CCN(c4ccccc4)CC3)nc2N)cc1C
919 s	Cc1ccc(CNC(=O)C2CCN(C(=O)N3CCOc4ccc(Cl)cc43)CC2)cc1
750 s	CCN1C(=O)C2(CCN(C(=O)c3cc(C)n(C)n3)CC2)c2ccccc21
661 s	COc1ccc(C2(C(=O)N3CC(n4c(C)cnc4-c4ccccc4)C3)CC2)cc1
548 s	Cc1nnc2c(=O)n(CC(=O)N3CCN(c4ccccn4)CC3)c3cccnc3n12
772 s	COC(=O)c1ccccc1S(=O)(=O)Nc1cccn2c(C3CCC3)nnc12
831 s	COC(=O)c1cccc(N2C=C(C(=O)N3CCCC3)S(=O)(=O)c3ccc(Cl)cc32)c1
716 s	CC(=O)c1ccc(N2CCN(C(=O)CN3C(=S)NC(C)(C)CC3C)CC2)cc1 (stereo not given)
756 s	O=S(=O)(c1cccc(Cl)c1)N1CCN(c2cnn3c(C4CC4)nnc3c2)CC1
649 s	O=C(CCc1ccccc1)Nc1cnn(-c2ncncc2N2CCOCC2)c1
691 s	CN(Cc1cccnc1Oc1ccccc1)C(=O)c1cnccn1
1020 s	CCN(Cc1ccccc1)Cc1nc(-c2ccc(N3CCCC(C)C3)nc2)no1 (stereo not given)
890 s	Cc1ccc(-n2c(N3CCC(C(=O)NCCC(C)C)CC3)nc3ccsc3c2=O)cc1
730 s	C=CCn1c(C)c(CC(=O)NCCC)c(=O)n2nc(-c3ccccc3)nc12
1190 s	Cc1cccc(Sc2nccnc2N2CCCC(C(=O)NCCCc3ccccc3)C2)c1 (stereo not given)
929 s	Cc1cccc(N2CCN(C(=O)C3CCN(S(=O)(=O)c4cn(C(C)C)cn4)CC3)CC2)c1C
612 s	Cc1nc(Nc2ccc(Cl)cn2)sc1C(=O)N1CCN(C(C)C)CC1
664 s	COc1ccc(Cl)cc1NC(=O)N1CCN(C2=CC3=NC(C)CN3C=N2)CC1 (stereo not given)
823 s	CC(C)N1C(=O)c2cccnc2Sc2cc(NC(=O)Cc3ccsc3)ccc21
806 s	Cc1ccccc1NC(=O)Cn1c(=O)n(-c2ccccc2)c(=O)c2c1cc(C)n2C

RP-LC retention time	Structure (SMILES)
1140 s	CCc1cccc(NC(=O)Cn2nc3cc(C)nc(Nc4ccc(C)cc4)n3c2=O)c1
597 s	CCN1CCCn2cc(S(=O)(=O)NC3CCN(Cc4ccccc4)CC3)cc2C1=O
866 s	Cc1ccc2nc(NC(=O)CSc3nnc(C4COc5ccccc5O4)o3)sc2c1 (stereo not given)
840 s	COc1ccc(Nc2nc(N3CCN(c4ccc(F)cc4)CC3)nc3n[nH]nc23)cc1
800 s	COCCC1CCN(C(=O)COc2ccccc2)CC1
781 s	Cc1ccc2[nH]cc(CCNC(=O)CCn3c(=O)c(C)nc4ccccc43)c2c1
626 s	Cc1ccc2c(=O)c3c([nH]c2c1C)CCN(CC(=O)Nc1ccc(F)cc1)C3
1010 s	O=c1n(Cc2cccc(Br)c2)nc2c(S(=O)(=O)N3CCCCCC3)cccn12
594 s	CCOc1ccccc1NC(=O)N1CC(n2ccnc2)C1
1250 s	CC(C)Cn1cc(S(=O)(=O)N2CCN(c3cccc(Cl)c3)CC2)c2cccnc21
612 s	Cc1c(C(=O)N2CCN(C)CC2)cc(-c2ccccc2)n1C
1010 s	Cc1oc(-c2ccccc2)nc1Cn1cnc2nc3c(cc2c1=O)CC(C)CC3 (stereo not given)
1150 s	CCOc1ccc(N2CCCCn3c2nc2c3c(=O)n(CCC(C)C)c(=O)n2C)cc1
595 s	O=C(NCCCN1CCOCC1)c1ccc2ccnc(N3CCN(c4ccccc4F)CC3)c2c1
836 s	O=C(C(=O)N1CCc2ccccc2C1)c1c[nH]c2ccccc12
1060 s	COc1cccc(N2CCN(S(=O)(=O)c3cn(C(C)C)c4ncccc34)CC2)c1
1010 s	O=C(CSc1nc2ccccc2s1)OCc1cc(-c2ccco2)on1
960 s	CCc1cc(C(=O)Nc2ccccc2)nc2ccnn12
702 s	COc1ccc(NC(=O)C2CCc3nc(N4CCOCC4)ncc3C2)c(C)c1 (stereo not given)
1110 s	CCCOc1ccc(C(=O)Nc2nnc(SCc3nnc(-c4ccccc4C)o3)s2)cc1

The next lines start with the compound.

Structure (SMILES)	RP-LC retention time
CCCNC(=O)NC1CCN(C2=NS(=O)(=O)C(c3ccc(CC)cc3)=C2C)CC1	787 s
COc1ccc(NC(=O)C2CCN(S(=O)(=O)c3cn(C(C)C)cn3)CC2)c(OC)c1	951 s
NC(=O)C1CCN(C(=O)c2ccc(Cl)c(Cl)c2)CC1	656 s
COc1cccc(CNC2=NCCNC23CCN(S(=O)(=O)c2ccc(C)c(C)c2)CC3)c1	775 s
Cc1nc(NC(=O)c2ccccc2)n[nH]1	583 s
CCn1c(=O)n(CC)c2cc(S(=O)(=O)c3ccc(C)cc3)c(NC(C)=O)cc21	759 s
CCc1nc2cc(-c3noc(Cc4ccccc4Br)n3)ccc2o1	1220 s
COC[C@@H]1CN(c2cnccn2)C[C@H]1C(=O)NC(C)C	572 s
CCOC(=O)C1CCCN(C(=O)Cc2cc(-c3ccc(F)cc3)on2)C1 (stereo not given)	820 s
CCc1nn2c(CNC(=O)c3cccc(C)c3)c(-c3ccccc3)nc2s1	936 s
Cc1nc(-c2cc(S(=O)(=O)NC(C)Cc3ccco3)c(C)s2)sc1C (stereo not given)	1060 s
Cc1noc(-c2ccc(OC3CN(C(=O)NCC(C)C)C3)cc2)n1	781 s
O=C(NCc1ccccc1)Nc1ccc2nc(-c3ccccc3)cc(N3CCOCC3)c2c1	709 s
CC(C)CN1C(=O)CCc2cc(NS(=O)(=O)c3ccc(F)cc3)ccc21	861 s
COc1ccc(Cl)cc1NC(=O)Cn1cccc1-c1nnc(C2CC2)o1	972 s
Nc1cc(C2CCN(C(=O)c3ccc(F)cc3)CC2)no1	675 s
CCOc1ccc(-c2[nH]ncc2CNS(=O)(=O)c2ccc(NC(C)=O)cc2)cc1	702 s
CN(C)c1ccc(-c2nc(C3CC(=O)N(c4ccc(F)cc4)C3)no2)cc1 (stereo not given)	975 s
CCC(C)NC(=O)c1ccc2c(ccn2C)c1 (stereo not given)	779 s
CCC(=O)N(C1CCOCC1)C1CCN(S(=O)(=O)c2ccc(CC)cc2)CC1	908 s
O=C(NCCc1csc(-c2ccc(F)cc2)n1)c1cccs1	913 s
CC(C)CCNC(=O)c1nnc(-c2ccc(S(=O)(=O)N3CCOCC3)cc2)o1	851 s
COc1ccc(-c2noc(-c3nc(C)no3)n2)cc1OC	888 s
O=C(Nc1ccc2c(c1)OCCO2)N1CC[C@@H]2CN(Cc3ccccc3)[C@@H]2C1	796 s
Cc1ccc(CN2C[C@@H]3C(=O)N(Cc4ccc5c(c4)OCO5)C(=O)[C@@H]3C2)cc1C	691 s

Structure (SMILES)	RP-LC retention time
O=C(NCc1ccco1)c1cc(C2CC2)on1	717 s
COc1cc(NC(=O)N2CCc3c(c(C(=O)N4CCCC4)nn3C)C2)cc(OC)c1	693 s
CC(C)OC(=O)CCC/C=C\C[C@@H]1[C@@H](CC[C@@H](O)CCc2ccccc2)[C@H](O)C[C@@H]1O	1020 s
NC(=O)C1CCN(C2CC(=O)N(c3ccc4c(c3)OCCO4)C2=O)CC1 (stereo not given)	568 s
CCCN(CCC)CCCNC(=O)C1=C(C)C(=O)OC12CCN(Cc1ccccc1)CC2	558 s
CCOC(=O)c1[nH]c(C)c(CCC(=O)NCCN2CCOCC2)c1C	597 s
Cc1ccc(CNS(=O)(=O)c2cc(-c3nc(C)c(C)s3)cs2)cc1	1040 s
O=C(CC1CCN(C(=O)C2(c3ccccc3)CC2)C1)NC1CC1 (stereo not given)	666 s
CCCN(CC1CCOC1)C(=O)c1ccccc1Br (stereo not given)	801 s
CCc1nnc2ccc(-c3noc(-c4ccc(OC)c(OC)c4)n3)cn12	829 s
COc1ccc(-c2noc(CCC(=O)O)n2)cc1	693 s
O=C(Nc1cccc(C(F)(F)F)c1)N1CCC(N2C[C@H]3C[C@H](C2)[C@H]2CCCC(=O)N2C3)CC1	653 s
Cc1ccc(-c2cn3ccn(-c4ccc(F)c(Cl)c4)c(=O)c3n2)cc1	927 s
COc1ccc(CN2CCc3nc(N4CCOCC4)ncc3C2)c(OC)c1OC	597 s
CCC(=O)NCc1nc2c(n1C)CN(S(=O)(=O)c1ccc(CC)cc1)CC2	581 s
C=C(C)CN1CC[C@]23c4c5ccc(O)c4O[C@H]2c2[nH]c4ccccc4c2C[C@@]3(O)C1C5	703 s
Cc1ccc(-c2ncccc2CNS(=O)(=O)c2cccc(F)c2)cc1	713 s
CCCCCNC(=O)c1ccc2c(c1)CCCN2S(=O)(=O)CC	896 s
CCCNc1cc(N2CCC(CCC(=O)NC(C)C)CC2)ncn1	602 s
Cc1ccc(CC(=O)Nc2ccc(-c3nc(Cn4nc(C)c(C)c4C)c(C)o3)cc2)cc1	998 s
CCCN(C)C(=O)CCc1cc2cc(OC)ccc2[nH]c1=O	675 s
CC(=O)OC[C@@]1(O)C[C@@]23CC[C@@H]4c5ccoc5C=C[C@@]4(C)[C@@H]2CC[C@@H]1C3	715 s
Cc1ccccc1Nc1c(-c2ccccc2)nc2cccc(C)n12	750 s
NC(=O)c1cccc(-c2cc(Nc3ccc(OC(F)(F)F)cc3)ncn2)c1	765 s
O=C(Cn1c(CO)cnc1SCc1ccc(Cl)c(Cl)c1)NC1CC1	585 s
